Assay [1] can be described thus: NIH-3T3 fibroblast cytotoxicity, dose response, cytotoxicity control, cell-based, fluorescence, Alamar Blue, secondary assay (AID 2327).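 Further: NIH-3T3 mouse fibroblasts cultured with fluconazole at 8 µg/mL.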 Type of assay: functional. (The colour change of resazurin is a common sign of viable cells or microbes.)
In assay [2] the target is ATP-dependent molecular chaperone HSP82 (Candida albicans (strain WO-1) (Yeast), UniProt C4YTQ8). The assay is described as follows: steroid-induced GRE reporter decrease in yeast – S. cerevisiae, luminescence, Hsp90 inhibitor project, dose response (AID 2400).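 Further: beta-galactosidase luminescence from glucocorticoid response element reporter as proxy for Hsp90 function; inhibitor potency where signal loss means Hsp90 inhibition.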 Type of assay: functional, cell-based.
For assay [3], the target named is T1, Serine/threonine-protein phosphatase (Candida dubliniensis (strain CD36 / CBS 7987 / NCPF 3949 / NRRLY-17841) (Yeast), UniProt B9W6M3).
T1 sequence (B9W6M3 whole entry): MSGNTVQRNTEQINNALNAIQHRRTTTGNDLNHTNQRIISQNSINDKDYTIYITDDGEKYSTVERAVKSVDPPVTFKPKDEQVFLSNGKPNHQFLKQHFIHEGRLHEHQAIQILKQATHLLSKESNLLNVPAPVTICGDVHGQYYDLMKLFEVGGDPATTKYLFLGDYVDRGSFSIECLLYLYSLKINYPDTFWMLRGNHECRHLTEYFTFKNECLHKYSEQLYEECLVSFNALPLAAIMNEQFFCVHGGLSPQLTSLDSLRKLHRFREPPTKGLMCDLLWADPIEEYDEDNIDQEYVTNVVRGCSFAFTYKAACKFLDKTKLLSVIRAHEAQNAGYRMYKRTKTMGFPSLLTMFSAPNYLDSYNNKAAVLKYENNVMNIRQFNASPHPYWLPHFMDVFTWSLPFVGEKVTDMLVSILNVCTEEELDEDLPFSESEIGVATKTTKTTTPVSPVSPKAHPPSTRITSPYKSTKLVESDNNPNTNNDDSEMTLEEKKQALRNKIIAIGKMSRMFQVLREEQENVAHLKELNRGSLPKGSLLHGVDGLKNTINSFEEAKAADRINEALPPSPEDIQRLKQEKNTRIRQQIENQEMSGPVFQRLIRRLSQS
The assay is described as follows: blockers of CaCl2-induced CDRE-lacZ signaling – S. cerevisiae, luminescence, secondary, dose response (AID 2388).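 Further: yeast reporter cells carrying a calcineurin-responsive lacZ construct stimulated with calcium chloride; luminescent beta-galactosidase reporter signal in whole cells rather than isolated phosphatase activity; potency for inhibition where a drop in reporter signal means calcineurin blockade.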 Type of assay: functional, cell-based.

Assay [4] is described as follows: fluconazole-exposed Candida albicans growth modulators – fluorescence, retest, confirmation (AID 2467). In kind it is functional, cell-based.
In assay [5] the test system is BJ. Kind of assay: BJ-TERT-LT-ST fibroblast viability loss – cell-based, RAS-independent, luminescence, dose response (AID 1935).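 Further: BJ fibroblasts immortalized with TERT plus LT and ST oncogenes.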 In kind it is functional. The conditions noted are these: Homo sapiens.
A short description of assay [6]: DRD fibroblast viability loss – cell-based, non-viral oncogenic, luminescence, dose response (AID 1934). Type of assay: functional. The conditions noted are these: Homo sapiens.
Assay [7] in a line: HEK-293T viability loss after treatment – luminescence, T-cell screen hits, cytotoxicity control for TCR NF-kB inhibitor project, dose response (AID 489026).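 Further: cells exposed to compound about 14 hours before the viability readout.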 In kind it is functional, cell-based.
The test system of assay [8] is BJ. Kind of assay: BJ-TERT fibroblast viability loss – cell-based, RAS-independent, luminescence, dose response (AID 1933). In kind it is functional. The conditions noted are these: Homo sapiens.
Assay [9] deals with T2, Fatty acid synthase (Homo sapiens, UniProt P49327). Kind of assay: inhibition of human FAS-TE enzyme activity – biochemical, endpoint fluorescence intensity, uHTS hits, dose response (AID 624327).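 Further: fluorescence from hydrolysis of an O-methyl fluorescein acyl ester substrate by the enzyme.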 Type of assay: functional.
Assay [10] concerns the target T2, Fatty acid synthase. The assay is described as follows: inhibition of human FAS-TE enzyme activity – biochemical, kinetic fluorescence intensity, dose response (AID 624326).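 Further: rate of fluorescence rise from hydrolysis of a fluorogenic O-methyl fluorescein ester substrate.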 In kind it is functional.
For assay [11], the target named is Paired box protein Pax-8 (Homo sapiens, UniProt Q06710). Kind of assay: PAX8 transcriptional activity inhibition in RMG-I – RMG-I cells, luciferase, cherry-pick, dose response (AID 687027).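 Further: luciferase reporter driven by Pax8 target thyroperoxidase promoter measured by SteadyGlo luminescence.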 In kind it is functional, cell-based.
The subject of assay [12] is BJ. The assay is described as follows: cells. Type of assay: functional, cell-based. As to conditions: Homo sapiens.
Assay [13] deals with Genome polyprotein (dengue virus type 2, UniProt P29990). Kind of assay: flavivirus cap methylation enzyme inhibition – biochemical, confirmation dose response, primary screen (AID 588689). In kind it is functional.
Assay [14] deals with T3, Carboxy-terminal domain RNA polymerase II polypeptide A small phosphatase 1 (Homo sapiens, UniProt Q9GZU7).
T3 sequence (Q9GZU7 whole entry): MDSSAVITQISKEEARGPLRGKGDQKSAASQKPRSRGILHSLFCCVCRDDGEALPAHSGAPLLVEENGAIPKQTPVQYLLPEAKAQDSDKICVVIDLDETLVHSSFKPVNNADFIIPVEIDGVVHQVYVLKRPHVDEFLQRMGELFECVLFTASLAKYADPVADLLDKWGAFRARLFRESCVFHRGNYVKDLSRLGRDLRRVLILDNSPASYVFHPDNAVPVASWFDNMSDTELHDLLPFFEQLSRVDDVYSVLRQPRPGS
The assay is described as follows: CTDSP1 inhibitors, concentration-response, biochemical, absorbance readout, ultra-high-throughput screen actives (AID 540297). Type of assay: functional.

The target in assay [15] is T4, Replicative DNA helicase DnaB (Mycobacterium tuberculosis, UniProt P9WMR3).
T4 sequence (P9WMR3 whole entry): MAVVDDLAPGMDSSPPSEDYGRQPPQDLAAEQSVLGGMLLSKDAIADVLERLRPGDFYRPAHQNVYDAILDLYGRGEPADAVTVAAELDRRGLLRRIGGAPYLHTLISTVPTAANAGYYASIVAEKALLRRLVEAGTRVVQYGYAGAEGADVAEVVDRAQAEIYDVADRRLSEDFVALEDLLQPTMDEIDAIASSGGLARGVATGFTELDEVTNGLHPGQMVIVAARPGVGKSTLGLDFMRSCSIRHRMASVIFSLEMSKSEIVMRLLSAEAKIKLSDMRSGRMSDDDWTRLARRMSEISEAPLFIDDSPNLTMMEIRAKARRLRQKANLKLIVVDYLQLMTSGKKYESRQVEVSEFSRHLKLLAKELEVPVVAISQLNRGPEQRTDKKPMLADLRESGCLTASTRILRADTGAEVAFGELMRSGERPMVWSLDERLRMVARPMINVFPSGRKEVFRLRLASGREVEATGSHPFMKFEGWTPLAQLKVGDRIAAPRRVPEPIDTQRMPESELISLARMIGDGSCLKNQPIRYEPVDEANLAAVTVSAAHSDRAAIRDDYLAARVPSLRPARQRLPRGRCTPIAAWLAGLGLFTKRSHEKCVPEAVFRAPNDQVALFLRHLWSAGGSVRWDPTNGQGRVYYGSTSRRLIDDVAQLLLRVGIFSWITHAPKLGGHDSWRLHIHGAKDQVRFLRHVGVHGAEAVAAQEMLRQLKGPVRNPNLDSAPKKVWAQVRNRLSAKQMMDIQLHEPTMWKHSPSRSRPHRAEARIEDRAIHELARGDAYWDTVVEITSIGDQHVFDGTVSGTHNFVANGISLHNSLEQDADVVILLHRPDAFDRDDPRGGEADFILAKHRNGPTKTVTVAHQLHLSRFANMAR
Kind of assay: DnaB intein splicing inhibitors, dose response, biochemical, cell-free fluorescence (AID 449749). Type of assay: functional.

The target in assay [16] is T5, Protein RecA (Mycobacterium tuberculosis, UniProt P9WHJ3).
T5 sequence (P9WHJ3 whole entry): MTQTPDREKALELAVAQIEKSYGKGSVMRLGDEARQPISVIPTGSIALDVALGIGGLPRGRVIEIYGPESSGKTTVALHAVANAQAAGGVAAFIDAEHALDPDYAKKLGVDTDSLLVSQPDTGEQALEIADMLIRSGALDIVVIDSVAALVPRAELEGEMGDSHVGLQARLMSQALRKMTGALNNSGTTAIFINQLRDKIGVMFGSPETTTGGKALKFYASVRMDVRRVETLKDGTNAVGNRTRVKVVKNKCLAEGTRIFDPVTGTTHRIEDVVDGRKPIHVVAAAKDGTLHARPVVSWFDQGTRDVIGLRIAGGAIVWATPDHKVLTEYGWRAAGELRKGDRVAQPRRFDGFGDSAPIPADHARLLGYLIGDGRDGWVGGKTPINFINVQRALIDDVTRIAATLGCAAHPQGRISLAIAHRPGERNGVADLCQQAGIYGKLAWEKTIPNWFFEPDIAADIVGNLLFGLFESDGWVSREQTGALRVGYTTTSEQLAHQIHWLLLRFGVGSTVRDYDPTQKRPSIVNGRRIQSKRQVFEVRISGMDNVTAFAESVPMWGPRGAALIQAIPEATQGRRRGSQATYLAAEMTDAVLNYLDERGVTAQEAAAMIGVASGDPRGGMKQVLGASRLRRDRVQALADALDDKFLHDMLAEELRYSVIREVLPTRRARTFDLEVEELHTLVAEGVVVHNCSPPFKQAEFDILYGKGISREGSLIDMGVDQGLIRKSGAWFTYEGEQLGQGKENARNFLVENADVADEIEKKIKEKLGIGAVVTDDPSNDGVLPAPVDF
The assay is described as follows: Fluorescence Cell-Free Homogeneous Dose Retest to Identify Inhibitors of RecA-Intein Splicing Activity. [Related pubchem assays (depositor defined):AID2097, AID2223, AID489010, AID492950]. In kind it is functional.

Assay [17] deals with Streptococcus sp. 'group A'. The assay is described as follows: Streptococcus pyogenes SK(-)GAS viability under kanamycin – luminescence, BacTiterGlo, confirmation, counter-screen for streptokinase expression inhibitor project, dose response (AID 1900). Type of assay: functional, organism-based. In general terms: Counterscreens check selectivity or assay interference.
Assay [18] deals with Streptococcus. The assay is described as follows: GAS UMAA2166 growth inhibition – luminescence, BacTiterGlo, counter-screen for streptokinase expression inhibitor project, dose response (AID 1915).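 Further: potency for reduction of bacterial viability or growth.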 In kind it is functional, organism-based.
Assay [19] can be described thus: Luminescence Cell-Based Dose Response HTS to Identify Inhibitors of 5'UTR Stem-Loop Driven Prion Protein mRNA Translation in H4 Neuroglioblastoma Cells. [Related pubchem assays: 1827 (Project Summary), 1813 (Primary HTS)]. In kind it is functional.
Assay [20] can be described thus: luciferase reporter signal suppression in cells – H4 neuroglioma cells, luminescence, dose response (AID 1990). In kind it is functional, cell-based.
A short description of assay [21]: alpha-synuclein stem-loop luciferase translation blockers – H4 neuroglioma cells, luminescence, confirmation (AID 1988). Type of assay: functional, cell-based.
A short description of assay [22]: viability of uninfected HEp-2 cells – cell-based, HTS, cytotoxicity control for RSV inhibitor project, dose response (AID 2410). As to conditions: human respiratory syncytial virus. Type of assay: functional.
Assay [23] can be described thus: Vero E6 cell cytotoxicity, dose response, cytotoxicity control for non-replicating M. tuberculosis project, secondary assay (AID 492998). Type of assay: functional, VeroE6. The conditions noted are these: Vero C1008.
The nature of assay [24]: THP-1 cell cytotoxicity, dose response, cytotoxicity control for non-replicating M. tuberculosis project (AID 489025). Type of assay: functional.
Assay [25] can be described thus: cells. In kind it is functional.

Calls of active or inactive are those of the source. For most assays here, no stated cut-off is given here; in the data, actives have a measured EC50 and inactives only a lower limit.

Chain of Genome polyprotein (P29990 2492-3391 limits assumed): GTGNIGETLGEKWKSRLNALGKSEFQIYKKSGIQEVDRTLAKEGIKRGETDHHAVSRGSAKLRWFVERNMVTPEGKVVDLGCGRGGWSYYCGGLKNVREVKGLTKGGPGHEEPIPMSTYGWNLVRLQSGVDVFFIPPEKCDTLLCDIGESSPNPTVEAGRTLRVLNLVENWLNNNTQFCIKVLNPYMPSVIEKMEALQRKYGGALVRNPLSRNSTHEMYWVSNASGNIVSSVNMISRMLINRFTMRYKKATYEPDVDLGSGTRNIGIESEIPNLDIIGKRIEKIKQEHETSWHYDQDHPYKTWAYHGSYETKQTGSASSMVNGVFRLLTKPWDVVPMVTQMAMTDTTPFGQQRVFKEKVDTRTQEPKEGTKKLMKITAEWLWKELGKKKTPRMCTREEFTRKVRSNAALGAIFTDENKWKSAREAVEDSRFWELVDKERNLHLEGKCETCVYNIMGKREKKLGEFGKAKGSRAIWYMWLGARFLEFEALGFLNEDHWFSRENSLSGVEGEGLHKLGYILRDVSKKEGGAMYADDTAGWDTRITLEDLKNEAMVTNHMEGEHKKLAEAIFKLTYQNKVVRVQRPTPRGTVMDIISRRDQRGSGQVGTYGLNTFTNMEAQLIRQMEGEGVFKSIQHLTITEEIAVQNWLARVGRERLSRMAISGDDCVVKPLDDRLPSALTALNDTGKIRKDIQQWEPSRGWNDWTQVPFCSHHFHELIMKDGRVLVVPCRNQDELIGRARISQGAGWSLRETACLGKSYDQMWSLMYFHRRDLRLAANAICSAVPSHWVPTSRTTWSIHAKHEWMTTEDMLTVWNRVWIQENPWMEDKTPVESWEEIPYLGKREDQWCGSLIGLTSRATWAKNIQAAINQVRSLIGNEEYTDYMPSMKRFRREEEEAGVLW
Chain of ATP-dependent molecular chaperone HSP82 (C4YTQ8 whole entry): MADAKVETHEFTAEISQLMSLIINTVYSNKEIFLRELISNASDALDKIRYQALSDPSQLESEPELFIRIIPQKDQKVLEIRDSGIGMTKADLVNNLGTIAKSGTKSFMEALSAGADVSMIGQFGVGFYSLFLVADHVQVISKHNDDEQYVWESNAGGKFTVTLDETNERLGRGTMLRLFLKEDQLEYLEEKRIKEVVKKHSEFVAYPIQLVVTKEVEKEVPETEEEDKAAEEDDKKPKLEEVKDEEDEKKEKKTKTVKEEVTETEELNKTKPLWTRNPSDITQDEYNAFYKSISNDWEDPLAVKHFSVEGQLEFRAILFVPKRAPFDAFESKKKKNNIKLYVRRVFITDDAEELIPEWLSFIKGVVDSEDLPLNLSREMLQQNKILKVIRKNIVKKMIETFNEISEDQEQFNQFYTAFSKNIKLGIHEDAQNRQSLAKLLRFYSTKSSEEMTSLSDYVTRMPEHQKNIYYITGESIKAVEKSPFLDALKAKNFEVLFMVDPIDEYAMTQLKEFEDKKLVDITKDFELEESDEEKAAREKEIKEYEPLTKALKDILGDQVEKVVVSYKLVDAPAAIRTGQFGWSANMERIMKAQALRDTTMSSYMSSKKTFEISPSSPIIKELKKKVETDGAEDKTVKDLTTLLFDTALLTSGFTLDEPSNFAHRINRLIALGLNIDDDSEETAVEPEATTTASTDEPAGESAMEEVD
T2 sequence (P49327 whole entry): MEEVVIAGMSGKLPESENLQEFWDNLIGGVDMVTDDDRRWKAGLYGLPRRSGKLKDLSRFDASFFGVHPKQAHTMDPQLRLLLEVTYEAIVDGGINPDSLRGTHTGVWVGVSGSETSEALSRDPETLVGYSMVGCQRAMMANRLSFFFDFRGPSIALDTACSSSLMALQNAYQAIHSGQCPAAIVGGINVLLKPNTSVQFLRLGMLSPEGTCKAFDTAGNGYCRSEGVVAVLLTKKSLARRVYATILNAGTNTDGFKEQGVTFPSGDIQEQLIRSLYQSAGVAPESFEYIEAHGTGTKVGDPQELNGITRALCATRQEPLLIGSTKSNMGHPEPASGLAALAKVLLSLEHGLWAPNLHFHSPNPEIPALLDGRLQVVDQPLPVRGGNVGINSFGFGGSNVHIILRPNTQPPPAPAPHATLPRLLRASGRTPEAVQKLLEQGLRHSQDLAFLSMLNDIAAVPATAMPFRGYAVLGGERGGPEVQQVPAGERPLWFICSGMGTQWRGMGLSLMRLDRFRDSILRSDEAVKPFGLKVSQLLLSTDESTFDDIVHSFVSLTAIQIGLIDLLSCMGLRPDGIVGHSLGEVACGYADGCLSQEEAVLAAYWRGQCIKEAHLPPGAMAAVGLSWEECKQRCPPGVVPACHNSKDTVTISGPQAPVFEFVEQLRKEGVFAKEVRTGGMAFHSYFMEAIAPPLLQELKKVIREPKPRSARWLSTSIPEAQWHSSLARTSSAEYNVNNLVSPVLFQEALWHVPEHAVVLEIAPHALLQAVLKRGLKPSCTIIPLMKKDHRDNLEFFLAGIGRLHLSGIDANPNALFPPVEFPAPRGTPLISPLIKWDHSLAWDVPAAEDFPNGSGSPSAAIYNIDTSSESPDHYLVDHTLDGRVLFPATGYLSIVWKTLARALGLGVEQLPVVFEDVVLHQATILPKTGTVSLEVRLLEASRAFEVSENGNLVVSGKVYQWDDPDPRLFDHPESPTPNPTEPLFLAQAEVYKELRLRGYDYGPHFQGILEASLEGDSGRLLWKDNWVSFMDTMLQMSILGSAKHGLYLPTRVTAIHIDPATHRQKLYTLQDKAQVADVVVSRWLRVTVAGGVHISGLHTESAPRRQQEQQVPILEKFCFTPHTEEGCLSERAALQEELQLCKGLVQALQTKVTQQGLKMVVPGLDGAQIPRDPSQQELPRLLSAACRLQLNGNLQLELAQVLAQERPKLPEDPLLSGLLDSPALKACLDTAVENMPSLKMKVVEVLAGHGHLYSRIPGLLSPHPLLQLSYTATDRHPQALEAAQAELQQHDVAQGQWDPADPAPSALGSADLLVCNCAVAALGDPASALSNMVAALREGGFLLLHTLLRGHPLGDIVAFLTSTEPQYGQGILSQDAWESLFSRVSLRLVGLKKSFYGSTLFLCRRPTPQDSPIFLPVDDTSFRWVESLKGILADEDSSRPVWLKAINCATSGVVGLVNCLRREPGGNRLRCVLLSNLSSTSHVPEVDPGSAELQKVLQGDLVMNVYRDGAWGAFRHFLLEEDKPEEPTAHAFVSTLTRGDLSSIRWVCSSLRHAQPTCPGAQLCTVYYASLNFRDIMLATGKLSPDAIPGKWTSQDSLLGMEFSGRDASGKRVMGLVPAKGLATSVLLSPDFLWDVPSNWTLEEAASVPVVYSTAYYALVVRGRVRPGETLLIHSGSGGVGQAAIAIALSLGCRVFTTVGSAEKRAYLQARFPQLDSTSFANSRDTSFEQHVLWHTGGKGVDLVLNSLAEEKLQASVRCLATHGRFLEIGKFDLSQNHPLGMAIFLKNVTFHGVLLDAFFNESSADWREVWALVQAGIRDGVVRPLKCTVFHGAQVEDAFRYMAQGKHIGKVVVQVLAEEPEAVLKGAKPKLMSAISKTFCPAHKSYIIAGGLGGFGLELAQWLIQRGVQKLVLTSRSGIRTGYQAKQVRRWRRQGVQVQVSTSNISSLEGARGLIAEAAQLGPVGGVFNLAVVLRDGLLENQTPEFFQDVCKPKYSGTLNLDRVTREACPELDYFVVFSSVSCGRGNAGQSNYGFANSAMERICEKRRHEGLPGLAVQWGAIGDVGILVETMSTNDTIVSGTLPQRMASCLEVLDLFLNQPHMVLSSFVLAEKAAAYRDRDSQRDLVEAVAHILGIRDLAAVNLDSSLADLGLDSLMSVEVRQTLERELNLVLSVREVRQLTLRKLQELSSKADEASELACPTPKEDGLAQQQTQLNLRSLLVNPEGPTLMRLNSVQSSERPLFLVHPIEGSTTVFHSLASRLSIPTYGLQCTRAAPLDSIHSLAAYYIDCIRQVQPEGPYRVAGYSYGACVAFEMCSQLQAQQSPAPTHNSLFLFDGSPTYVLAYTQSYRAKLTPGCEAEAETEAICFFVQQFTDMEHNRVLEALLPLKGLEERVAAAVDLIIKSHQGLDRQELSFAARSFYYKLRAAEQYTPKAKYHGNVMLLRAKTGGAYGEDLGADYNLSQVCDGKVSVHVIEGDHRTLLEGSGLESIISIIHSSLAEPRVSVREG
Chain of Paired box protein Pax-8 (Q06710 whole entry): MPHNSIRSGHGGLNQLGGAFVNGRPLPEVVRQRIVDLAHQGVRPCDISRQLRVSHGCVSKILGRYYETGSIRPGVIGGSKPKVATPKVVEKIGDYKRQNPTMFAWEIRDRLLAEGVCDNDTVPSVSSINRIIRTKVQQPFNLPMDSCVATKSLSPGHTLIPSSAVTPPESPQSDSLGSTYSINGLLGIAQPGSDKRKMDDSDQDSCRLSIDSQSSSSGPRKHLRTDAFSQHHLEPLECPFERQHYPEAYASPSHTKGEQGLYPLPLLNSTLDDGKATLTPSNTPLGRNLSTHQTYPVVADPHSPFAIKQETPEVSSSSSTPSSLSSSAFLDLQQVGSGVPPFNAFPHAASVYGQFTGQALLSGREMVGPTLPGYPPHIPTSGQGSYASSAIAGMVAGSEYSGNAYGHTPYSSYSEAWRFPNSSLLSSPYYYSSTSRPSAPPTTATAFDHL

Regarding `CSC(=Nc1ccc(Br)cc1F)NS(=O)(=O)c1cccs1`, the EC50 (commonly the concentration at which the effect is half-maximal) in assay [1] is > 150 µM (inactive); in assay [2], 18.6 µM (active); in [3], > 180 µM (inactive); in assay [4] it was 0.239 µM (active).

With `CSc1ccc(COC(=O)c2cc([N+](=O)[O-])ccc2N2CCOCC2)cc1`, the EC50 in [5] is 0.385 µM (active); in [6], 0.653 µM (active); in [8] it was 0.652 µM (inconclusive); in assay [12], 1.09 µM (active). The IC50 (in general, the concentration that gives 50% inhibition) in assay [7] is > 80 µM (inactive); in assay [9], 4.08 µM (active); in assay [10] it was 3.26 µM (active). Moreover, the AC50 (in general, the concentration at which the activity in the assay is half-maximal) in assay [11] is 0.619 µM (active).

Take `Cc1ccc(S(=O)(=O)NN2C(=O)/C(=C/c3cccc(F)c3)SC2=S)cc1`: in assay [13], the IC50 was 27.2 µM (active).

Consider `Cc1oc2c(C)c3oc(=O)c(CC(=O)N[C@@H](CC(C)C)C(=O)N[C@@H](Cc4ccccc4)C(=O)O)c(C)c3cc2c1C`, for which the figures for the IC50 in [14] and in [13] were 4.59 µM (active) and 72.6 µM (active), respectively.

For `COc1ccc(C(=O)N2c3ccccc3C=CC2C#N)cc1` (centres undefined), the concentration giving a half-maximal response (EC50) in assay [1] was > 160 µM (inconclusive); in assay [2], > 150 µM (inactive); in [3] it was > 180 µM (inactive); in assay [4], 0.186 µM (active).

With `Cc1ccc(N2C(=O)C(Cl)=C(N3CCN(C)CC3)C2=O)c(C)c1`, in assay [13], the IC50 is 40.5 µM (active). Further, the AC50 in assay [15] was 8.01 µM (active). For the same compound, in assay [16], the EC50 was 2.35 µM (active).

As for `O=C(Oc1cc2oc(=O)c3c(c2cc1Cl)CCCC3)c1cccs1`, the EC50 was > 150 µM (inactive) in [1], 21.4 µM (active) in [2], > 180 µM (inactive) in assay [3] and 1.12 µM (active) in assay [4].

As to `Cc1cccc(C(=O)CC(=O)c2cc(Cl)ccc2O)c1`, the EC50 is 34.3 µM (active) in [1]; 3.18 µM (active) in assay [2]; 1.01 µM (active) in assay [17]; 1.61 µM (active) in assay [18]; 9.23 µM (active) in assay [19]; > 180 µM (inactive) in assay [3]. The values for the EC50 in [20], in assay [4] and in assay [21] were 8.03 µM (active), 1.09 µM (active) and 5.25 µM (active), respectively.

Turning to `COc1ccc(CN2C(=O)/C(=C/c3ccncc3)SC2=S)cc1`, the EC50 in assay [5] was > 75 µM (inconclusive); in assay [6], 16.9 µM (active); in [8], 13.8 µM (active); in [12], > 150 µM (inconclusive). The CC50 (as a rule, the concentration that lowers cell viability or growth by half) is 10.3 µM (active) in assay [22], 7.52 µM (active) in [23] and 18 µM (active) in [24]. For the same compound, the IC50 in [25] was 21.2 µM (active).

With `CCOc1ccccc1C(=O)Nc1ccc2nc(N3CCN(c4ncccn4)CC3)cc(C)c2c1`, the IC50 in assay [7] was > 80 µM (inactive).
